Source: article PMC4335062, “Data-Driven Prediction and Design of bZIP Coiled-Coil Interactions” (PLoS Computational Biology, 2015)
Where two headings read alike, the source gives them in different places. Where no end group is shown, it is not given here.

Experiments:
Assay in all cases: Direct-binding FRET assay
[1] = target: T1, BATF (Homo sapiens, UniProt Q16520)
T1 construct: made in house
T1 sequence (Q16520 26-89 limits assumed): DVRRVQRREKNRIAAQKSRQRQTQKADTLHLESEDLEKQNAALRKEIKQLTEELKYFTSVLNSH
Protocol: (§1) The direct binding assay was performed manually in 384-well plates and is similar to a previously described assay. Wells were filled with 20 μL of 1 mM TCEP-HCl. A 4 μM stock of acceptor protein was made fresh in 1 mM TCEP-HCl, and 20 μL was titrated in 2-fold dilutions over the wells. […] The direct-binding FRET data were fit as previously described. Briefly, the Kd of the designed peptide homodimer was experimentally determined and used with previously determined target homodimer Kd values to determine the heterodimer Kd. The homodimer Kd values used for the human bZIPs were from; experiments done by […] et al. used the same protein constructs for the human bZIP proteins, the same buffer conditions, and the same assay. The fitting used a system of ordinary differential equations to describe the concentrations of homo and heterodimers formed by the donor (D) and acceptor (A) as a function of the heterodimer Kd. MATLAB was used to simulate the binding experiment for different Kd values, and the value that gave the best agreement between simulation and experiment was assigned. A minimum 15% change in the donor fluorescence upon titrating the acceptor peptide from 0 to 1000 nM was required for a fit to be attempted. If this minimum was not met, the interaction was classified as “NS” for no signal change. […] These interactions were marked “AS” to indicate anomalous signal. We attributed this to interactions between the peptides, the dyes and the walls of the assay plates at low concentrations. These curves could not be fit, given their unusual shapes at low concentrations of acceptor. For such curves, we removed the first five points and re-fit the data. […] One example of this is increasing concentrations of acceptor causing an increase in donor fluorescence.

[2] = target: T2, CREB3L1 (Homo sapiens, UniProt Q96BA8)
T2 construct: made in house
T2 sequence (Q96BA8 290-353 limits assumed): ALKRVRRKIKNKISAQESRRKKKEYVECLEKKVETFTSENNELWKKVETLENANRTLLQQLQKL
Protocol: as §1

[3] = target: T3, CREB3L3 (Homo sapiens, UniProt Q68CJ9)
T3 construct: made in house
T3 sequence (Q68CJ9 243-306 limits assumed): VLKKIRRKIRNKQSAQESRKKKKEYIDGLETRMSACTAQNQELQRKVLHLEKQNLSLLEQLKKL
Protocol: as §1

[4] = target: T4, CREBZF (Homo sapiens, UniProt Q9NS37)
T4 construct: made in house
T4 sequence (Q9NS37 204-267 limits assumed): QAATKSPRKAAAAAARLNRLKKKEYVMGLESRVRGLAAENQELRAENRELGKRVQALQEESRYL
Protocol: as §1

[5] = target: T5, NFE2L2 (Homo sapiens, UniProt Q16236)
T5 construct: made in house
T5 sequence (Q16236 497-560 limits assumed): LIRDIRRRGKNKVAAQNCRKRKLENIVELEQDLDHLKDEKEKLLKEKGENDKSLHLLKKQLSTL
Protocol: as §1

[6] = target: ATF6 (Homo sapiens, UniProt P18850); parameters: made in house
Sequence of ATF6 (P18850 306-369 limits assumed): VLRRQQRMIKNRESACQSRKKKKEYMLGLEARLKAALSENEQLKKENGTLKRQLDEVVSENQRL
Protocol: as §1

[7] = target: BACH1 (Homo sapiens, UniProt O14867); parameters: made in house
Sequence of BACH1 (O14867 557-620 limits assumed): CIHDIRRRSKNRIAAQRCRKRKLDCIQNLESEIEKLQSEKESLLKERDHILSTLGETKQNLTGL
Protocol: as §1

[8] = target: BACH2 (Homo sapiens, UniProt Q9BYV9); parameters: made in house
Sequence of BACH2 (Q9BYV9 646-709 limits assumed): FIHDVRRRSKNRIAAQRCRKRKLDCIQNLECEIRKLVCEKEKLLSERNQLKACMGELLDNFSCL
Protocol: as §1

[9] = target: MAF (Homo sapiens, UniProt O75444); parameters: made in house
Protocol: as §1

[10] = target: MAFB (Homo sapiens, UniProt Q9Y5Q3); parameters: made in house; conditions: mean or single
Protocol: as §1

[11] = target: NFE2L1 (Homo sapiens, UniProt Q14494); parameters: made in house; conditions: mean or single
Sequence of NFE2L1 (Q14494 654-717 limits assumed): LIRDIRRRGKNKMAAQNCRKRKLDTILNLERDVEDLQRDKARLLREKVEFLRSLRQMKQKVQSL
Protocol: as §1

[12] = Kd, 4°C, C-terminal fluorescein design as donor, TAMRA target titrated
[13] = Kd, 4°C, C-terminal rhodamine design, mean or single
[14] = Kd, 4°C, N-terminal rhodamine design, mean or single
[15] = Kd, 23°C, C-terminal fluorescein design as donor, TAMRA target titrated
[16] = Kd, 23°C, C-terminal rhodamine design, mean or single
[17] = Kd, 23°C, N-terminal rhodamine design, mean or single
[18] = Kd, 37°C, C-terminal fluorescein design as donor, TAMRA target titrated
[19] = Kd, 37°C, C-terminal rhodamine design, mean or single
[20] = Kd, 37°C, N-terminal rhodamine design, mean or single
[21] = 4°C, C-terminal rhodamine design, mean or single
[22] = 4°C, N-terminal rhodamine design, mean or single
[23] = 23°C, C-terminal rhodamine design, mean or single
[24] = 23°C, N-terminal rhodamine design, mean or single
[25] = 37°C, N-terminal rhodamine design, mean or single
[26] = 4°C, C-terminal fluorescein design as donor, TAMRA target titrated
[27] = 23°C, C-terminal fluorescein design as donor, TAMRA target titrated
[28] = 37°C, C-terminal fluorescein design as donor, TAMRA target titrated
[29] = Kd, 4°C, C-terminal rhodamine design
[30] = Kd, 4°C, N-terminal rhodamine design
[31] = Kd, 23°C, C-terminal rhodamine design
[32] = Kd, 23°C, N-terminal rhodamine design
[33] = Kd, 37°C, C-terminal rhodamine design
[34] = Kd, 37°C, N-terminal rhodamine design
[35] = 4°C, C-terminal rhodamine design, mean or single, read-out: Kd
[36] = 4°C, N-terminal rhodamine design, mean or single, read-out: Kd
[37] = 23°C, C-terminal rhodamine design, mean or single, read-out: Kd
[38] = 23°C, N-terminal rhodamine design, mean or single, read-out: Kd
[39] = 37°C, C-terminal rhodamine design, mean or single, read-out: Kd
[40] = 37°C, N-terminal rhodamine design, mean or single, read-out: Kd
[41] = 4°C, C-terminal rhodamine design, read-out: Kd
[42] = 4°C, N-terminal rhodamine design, read-out: Kd
[43] = 23°C, C-terminal rhodamine design, read-out: Kd
[44] = 37°C, C-terminal rhodamine design, read-out: Kd
[45] = 37°C, N-terminal rhodamine design, read-out: Kd

SIAATLEKEEANLEKMNKKLAAEIESLLKEKDKLESVLNYHE [JUN-d1]
Kd [1, 12]: > 1000 nM
Kd [1, 13]: 200 to 1000 nM
Kd [1, 14]: > 1000 nM
Kd [1, 15]: > 1000 nM
Kd [1, 16]: > 1000 nM
Kd [1, 17]: > 1000 nM
Kd [1, 18]: > 1000 nM
Kd [1, 19]: > 1000 nM
Kd [1, 20]: > 1000 nM
Kd [2]: > 1000 nM
Kd [2, 21]: > 1000 nM
Kd [2, 22]: > 1000 nM
Kd [2, 23]: > 1000 nM
Kd [2, 24]: > 1000 nM
Kd [2, 25]: > 1000 nM
Kd [3]: > 1000 nM
Kd [3, 26]: > 1000 nM
Kd [3, 21]: > 1000 nM
Kd [3, 22]: > 1000 nM
Kd [3, 27]: > 1000 nM
Kd [3, 23]: > 1000 nM
Kd [3, 24]: > 1000 nM
Kd [3, 28]: > 1000 nM
Kd [3, 25]: > 1000 nM
Kd [4]: > 1000 nM
Kd [4, 26]: > 1000 nM
Kd [4, 21]: > 1000 nM
Kd [4, 22]: > 1000 nM
Kd [4, 27]: > 1000 nM
Kd [4, 23]: > 1000 nM
Kd [4, 24]: > 1000 nM
Kd [4, 28]: > 1000 nM
Kd [4, 25]: > 1000 nM
Kd [5, 12]: > 1000 nM
Kd [5, 13]: > 1000 nM
Kd [5, 14]: > 1000 nM
Kd [5, 15]: > 1000 nM
Kd [5, 16]: > 1000 nM
Kd [5, 17]: > 1000 nM
Kd [5, 18]: > 1000 nM
Kd [5, 19]: > 5000 nM
Kd [5, 20]: > 1000 nM
Kd [6]: > 1000 nM
Kd [6, 26]: > 1000 nM
Kd [6, 21]: > 1000 nM
Kd [6, 22]: > 1000 nM
Kd [6, 27]: > 1000 nM
Kd [6, 23]: > 1000 nM
Kd [6, 24]: > 1000 nM
Kd [6, 28]: > 1000 nM
Kd [6, 25]: > 1000 nM
Kd [7]: > 1000 nM
Kd [7, 26]: > 1000 nM
Kd [7, 21]: > 1000 nM
Kd [7, 22]: > 1000 nM
Kd [7, 27]: > 1000 nM
Kd [7, 23]: > 1000 nM
Kd [7, 24]: > 1000 nM
Kd [7, 28]: > 1000 nM
Kd [7, 25]: > 1000 nM
Kd [8, 12]: > 1000 nM
Kd [8, 13]: > 5000 nM
Kd [8, 14]: > 1000 nM
Kd [8, 15]: > 1000 nM
Kd [8, 16]: > 1000 nM
Kd [8, 17]: > 1000 nM
Kd [8, 18]: > 1000 nM
Kd [8, 19]: > 1000 nM
Kd [8, 20]: > 1000 nM
Kd [9]: > 1000 nM
Kd [9, 21]: > 1000 nM
Kd [9, 22]: > 1000 nM
Kd [9, 23]: > 1000 nM
Kd [9, 24]: > 1000 nM
Kd [9, 25]: > 1000 nM
Kd [10, 29]: 326 nM
Kd [10, 30]: > 1000 nM
Kd [10, 31]: > 1000 nM
Kd [10, 32]: > 1000 nM
Kd [10, 33]: > 1000 nM
Kd [10, 34]: > 1000 nM
Kd [11, 29]: > 5000 nM
Kd [11, 30]: > 1000 nM
Kd [11, 31]: > 5000 nM
Kd [11, 32]: > 1000 nM
Kd [11, 33]: > 5000 nM
Kd [11, 34]: > 1000 nM

KRIAYLRQRIAELRNENHVLESRIQRMEKEKDALQQDRDHLEYEL [ATF5-d1]
Kd [1, 35]: > 5000 nM
Kd [1, 36]: 136 nM
Kd [1, 37]: > 5000 nM
Kd [1, 38]: 382 nM
Kd [1, 39]: > 5000 nM
Kd [1, 40]: > 5000 nM
Kd [2, 35]: 158 nM
Kd [2, 36]: > 5000 nM
Kd [2, 37]: 529 nM
Kd [2, 38]: > 5000 nM
Kd [2, 40]: > 1000 nM
Kd [3, 35]: 230 nM
Kd [3, 36]: > 5000 nM
Kd [3, 37]: 414 nM
Kd [3, 38]: > 5000 nM
Kd [3, 39]: 657 nM
Kd [3, 40]: > 1000 nM
Kd [4, 35]: 409 nM
Kd [4, 36]: 375 nM
Kd [4, 37]: > 5000 nM
Kd [4, 38]: > 5000 nM
Kd [4, 39]: > 1000 nM
Kd [5, 35]: > 5000 nM
Kd [5, 36]: > 1000 nM
Kd [5, 37]: > 1000 nM
Kd [5, 38]: > 1000 nM
Kd [5, 39]: > 5000 nM
Kd [5, 40]: > 1000 nM
Kd [6, 35]: > 5000 nM
Kd [6, 36]: > 5000 nM
Kd [6, 37]: > 1000 nM
Kd [6, 38]: > 5000 nM
Kd [6, 39]: > 1000 nM
Kd [6, 40]: > 5000 nM
Kd [7, 35]: > 1000 nM
Kd [7, 36]: > 5000 nM
Kd [7, 37]: > 1000 nM
Kd [7, 38]: > 5000 nM
Kd [7, 39]: > 5000 nM
Kd [7, 40]: > 1000 nM
Kd [8, 35]: > 5000 nM
Kd [8, 36]: > 1000 nM
Kd [8, 37]: > 5000 nM
Kd [8, 38]: > 5000 nM
Kd [8, 39]: > 5000 nM
Kd [8, 40]: > 5000 nM
Kd [9, 35]: 790 nM
Kd [9, 36]: > 5000 nM
Kd [9, 37]: > 5000 nM
Kd [9, 38]: > 5000 nM
Kd [9, 39]: > 1000 nM
Kd [10, 41]: 725 nM
Kd [10, 42]: > 5000 nM
Kd [10, 43]: > 5000 nM
Kd [10, 44]: > 1000 nM
Kd [10, 45]: > 5000 nM
Kd [11, 41]: > 5000 nM
Kd [11, 42]: > 1000 nM
Kd [11, 43]: > 5000 nM
Kd ([11]; 23°C, N-terminal rhodamine design, read-out: Kd): > 1000 nM
Kd [11, 44]: > 5000 nM
Kd [11, 45]: > 1000 nM
